From publication PMC10247784, “Physiological activation of human and mouse bitter taste receptors by bile acids” (Communications Biology, 2023)

System: HEK293T-Gα16gust44 cells transfected with empty vector (mock)
Assay: Calcium imaging assay (FLIPR), empty vector control (mock)
Type: cell-based
Method in brief: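 Read-out is Fluo-4 fluorescence change (ΔF/F) after automated application of bile acids (DMSO stocks) to transiently transfected cells. Values are corrected for empty-vector cells and normalized to buffer. Dose-response from three independent experiments in duplicate; threshold concentration set at p < 0.01 versus mock.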

[1] = Mock, sheet TAS2R4, conc. 0,01 mM
[2] = Mock, sheet TAS2R4, conc. 0,03 mM
[3] = Mock, sheet TAS2R4, conc. 0,00003 mM
[4] = Mock, sheet TAS2R4, conc. 0,0001 mM
[5] = Mock, sheet TAS2R4, conc. 0,0003 mM
[6] = Mock, sheet TAS2R4, conc. 0,001 mM
[7] = Mock, sheet Tas2r108, conc. 0,01 mM
[8] = Mock, sheet Tas2r108, conc. 0,03 mM
[9] = Mock, sheet Tas2r108, conc. 0,00003 mM
[10] = Mock, sheet Tas2r108, conc. 0,0001 mM
[11] = Mock, sheet Tas2r108, conc. 0,0003 mM
[12] = Mock, sheet Tas2r108, conc. 0,001 mM
[13] = Mock, sheet Tas2r108, conc. 0,003 mM
[14] = conc. 0,01 mM, Mock (sheet TAS2R1)
[15] = conc. 0,03 mM, Mock (sheet TAS2R1)
[16] = conc. 0,00003 mM, Mock (sheet TAS2R1)
[17] = conc. 0,0001 mM, Mock (sheet TAS2R1)
[18] = conc. 0,0003 mM, Mock (sheet TAS2R1)
[19] = conc. 0,001 mM, Mock (sheet TAS2R1)
[20] = conc. 0,003 mM, Mock (sheet TAS2R1)
[21] = Mock, sheet Tas2r105, conc. 0,01 mM
[22] = Mock, sheet Tas2r105, conc. 0,00003 mM
[23] = Mock, sheet Tas2r105, conc. 0,0001 mM
[24] = Mock, sheet Tas2r105, conc. 0,0003 mM
[25] = Mock, sheet Tas2r105, conc. 0,001 mM
[26] = Mock, sheet Tas2r105, conc. 0,003 mM
[27] = Mock (sheet Tas2r123), conc. 0,01 mM
[28] = Mock (sheet Tas2r123), conc. 0,03 mM
[29] = Mock (sheet Tas2r123), conc. 0,0001 mM
[30] = Mock (sheet Tas2r123), conc. 0,0003 mM
[31] = Mock (sheet Tas2r123), conc. 0,001 mM
[32] = Mock (sheet Tas2r123), conc. 0,003 mM
[33] = Mock, sheet TAS2R4, conc. 0,003 mM

## C[C@H](CCC(=O)NCCS(=O)(=O)O)[C@H]1CC[C@H]2[C@@H]3CC[C@@H]4C[C@H](O)CC[C@]4(C)[C@H]3CC[C@]12C [Taurolithocholic Acid, taurolithocholic acid]
Mock (sheet Tas2r144), conc. 0,01 mM
  Δ F/F: 0.0005692
Mock (sheet Tas2r144), conc. 0,1 mM
  Δ F/F: 0.004595
Mock (sheet Tas2r144), conc. 0,03 mM
  Δ F/F: 0.0003601
Mock (sheet Tas2r144), conc. 0,00003 mM
  Δ F/F: 0.006114
Mock (sheet Tas2r144), conc. 0,0001 mM
  Δ F/F: 0.006504
Mock (sheet Tas2r144), conc. 0,0003 mM
  Δ F/F: 0.0008548
Mock (sheet Tas2r144), conc. 0,001 mM
  Δ F/F: 0.004624
Mock (sheet Tas2r144), conc. 0,003 mM
  Δ F/F: 0.001997
[1]
  Δ F/F: -0.008514
Mock, sheet TAS2R4, conc. 0,1 mM
  Δ F/F: -0.00794
[2]
  Δ F/F: -0.01099
Mock, sheet TAS2R4, conc. 0,000001 mM
  Δ F/F: -0.003137
Mock, sheet TAS2R4, conc. 0,000003 mM
  Δ F/F: -0.007155
Mock, sheet TAS2R4, conc. 0,00001 mM
  Δ F/F: -0.00504
[3]
  Δ F/F: -0.003977
[4]
  Δ F/F: -0.003234
[5]
  Δ F/F: -0.004056
[6]
  Δ F/F: -0.007019
Mock, sheet TAS2R14, conc. 0,01 mM
  Δ F/F: -0.03147
Mock, sheet TAS2R14, conc. 0,00001 mM
  Δ F/F: -0.004277
Mock, sheet TAS2R14, conc. 0,00003 mM
  Δ F/F: -0.0006944
Mock, sheet TAS2R14, conc. 0,0001 mM
  Δ F/F: -0.01329
Mock, sheet TAS2R14, conc. 0,0003 mM
  Δ F/F: -0.01832
Mock, sheet TAS2R14, conc. 0,001 mM
  Δ F/F: -0.01976
Mock, sheet TAS2R14, conc. 0,003 mM
  Δ F/F: -0.0246
Mock, sheet TAS2R46, conc. 0,01 mM
  Δ F/F: -0.02971
Mock, sheet TAS2R46, conc. 0,1 mM
  Δ F/F: -0.009753
Mock, sheet TAS2R46, conc. 0,03 mM
  Δ F/F: -0.03052
Mock, sheet TAS2R46, conc. 0,0001 mM
  Δ F/F: -0.0128
Mock, sheet TAS2R46, conc. 0,0003 mM
  Δ F/F: -0.01683
Mock, sheet TAS2R46, conc. 0,001 mM
  Δ F/F: -0.02076
Mock, sheet TAS2R46, conc. 0,003 mM
  Δ F/F: -0.0306
[7]
  Δ F/F: -0.02695
Mock, sheet Tas2r108, conc. 0,1 mM
  Δ F/F: -0.01465
[8]
  Δ F/F: -0.03132
Mock, sheet Tas2r108, conc. 0,00001 mM
  Δ F/F: -0.01948
[9]
  Δ F/F: -0.01658
[10]
  Δ F/F: -0.01596
[11]
  Δ F/F: -0.01689
[12]
  Δ F/F: -0.02887
[13]
  Δ F/F: -0.03792
[14]
  Δ F/F: 0.0009651
[15]
  Δ F/F: -0.0002852
conc. 0,000001 mM, Mock (sheet TAS2R1)
  Δ F/F: 0.0003466
conc. 0,000003 mM, Mock (sheet TAS2R1)
  Δ F/F: 0.0002774
conc. 0,00001 mM, Mock (sheet TAS2R1)
  Δ F/F: -0.0001438
[16]
  Δ F/F: 0.0007699
[17]
  Δ F/F: -0.00173
[18]
  Δ F/F: 0.00111
[19]
  Δ F/F: 0.001414
[20]
  Δ F/F: -0.000959

## C[C@H](CCC(=O)O)[C@H]1CC[C@H]2[C@@H]3CC[C@@H]4C[C@H](O)CC[C@]4(C)[C@H]3CC[C@]12C [Lithocholic Acid, lithocholic acid]
[21]
  Δ F/F: -0.0002988
Mock, sheet Tas2r105, conc. 0,00001 mM
  Δ F/F: -0.01431
[22]
  Δ F/F: -0.01708
[23]
  Δ F/F: -0.01503
[24]
  Δ F/F: -0.01339
[25]
  Δ F/F: -0.01175
[26]
  Δ F/F: -0.00295
[16]
  Δ F/F: -7.475e-5
[17]
  Δ F/F: -0.001646
[18]
  Δ F/F: -0.002463
[19]
  Δ F/F: -0.001163
[20]
  Δ F/F: -0.0001447

## C[C@H](CCC(=O)O)[C@H]1CC[C@H]2[C@@H]3CC[C@@H]4C[C@H](O)CC[C@]4(C)[C@H]3C[C@H](O)[C@]12C [Deoxycholic Acid, deoxycholic acid]
[27]
  Δ F/F: -0.0008829
[28]
  Δ F/F: -0.0003165
[29]
  Δ F/F: 0.00132
[30]
  Δ F/F: -0.002173
[31]
  Δ F/F: -0.000706
[32]
  Δ F/F: -0.0005125
[1]
  Δ F/F: 0.0004181
[2]
  Δ F/F: 0.001864
[5]
  Δ F/F: 0.0005365
[6]
  Δ F/F: 0.0001116
[33]
  Δ F/F: 0.0001746
[21]
  Δ F/F: -0.01259
Mock, sheet Tas2r105, conc. 0,03 mM
  Δ F/F: -0.004122
[22]
  Δ F/F: -0.01446
[23]
  Δ F/F: -0.0178
[24]
  Δ F/F: -0.01787
[25]
  Δ F/F: -0.0148
[26]
  Δ F/F: -0.01449
[7]
  Δ F/F: -0.006813
[8]
  Δ F/F: -0.0003425
[9]
  Δ F/F: -0.01113
[10]
  Δ F/F: -0.01772
[11]
  Δ F/F: -0.01462
[12]
  Δ F/F: -0.01703
[13]
  Δ F/F: -0.01481
[14]
  Δ F/F: -0.0008034
[15]
  Δ F/F: -0.0003771
[18]
  Δ F/F: -0.002238
[19]
  Δ F/F: -0.001593
[20]
  Δ F/F: -0.0004081

## C[C@H](CCC(=O)O)[C@H]1CC[C@H]2[C@@H]3[C@@H](O)C[C@@H]4C[C@H](O)CC[C@]4(C)[C@H]3CC[C@]12C [Ursodeoxycholic Acid, ursodeoxycholic acid]
[27]
  Δ F/F: -0.001066
[28]
  Δ F/F: -0.001504
[29]
  Δ F/F: -0.001573
[30]
  Δ F/F: -0.001292
[31]
  Δ F/F: -0.005211
[32]
  Δ F/F: -0.001793
[1]
  Δ F/F: -0.0004613
[2]
  Δ F/F: -0.0005491
[3]
  Δ F/F: -0.0004806
[4]
  Δ F/F: -0.001738
[5]
  Δ F/F: 0.0005593
[6]
  Δ F/F: -0.001147
[33]
  Δ F/F: -0.0007234
[14]
  Δ F/F: 0.000483
[15]
  Δ F/F: -0.001233
[17]
  Δ F/F: 0.0008084
[18]
  Δ F/F: -0.0004379
[19]
  Δ F/F: -0.001051
[20]
  Δ F/F: -0.001084
